# Test results published in PubChem BioAssay AID2060362 (Molecular Pharmacology Branch, DTP, NCI, 2025).
# pIC50: −log10 of the molar value. Values joined by “and” are separate entries in the source; they are usually repeats but may differ in a detail not shown here. Identical values can stand only once.
# Tested on: 128128-338-R-J1-PDC spheroids, viability % test/control
# Test: Anticancer human tumor 128128-338-R-J1-PDC patient-derived melanoma cell line growth inhibition [TAK]
# Details: spheroids with HUVEC and MSC; for viability, T/C: stronger effect = lower value
# How it was run: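 Tumor cells were grown as spheroids with HUVEC and hMSC (60:25:15) and treated with targeted agents combined with TAK-243 or ipatasertib. Drugs were tested in half-log steps down from near the clinical Cmax, or from 10 microM where Cmax was unknown.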
# [1] = curve of first compound, second compound 0.3 µM
# [2] = curve of first compound, second compound 0.949 µM
# [3] = curve of first compound, second compound 3 µM
# [4] = curve of first compound, second compound 9.49 µM
# [5] = curve of first compound, second compound 30 µM
# [6] = second compound 0.3 µM, first compound 0.00316 µM
# [7] = second compound 0.3 µM, first compound 0.01 µM
# [8] = second compound 0.3 µM, first compound 0.0316 µM
# [9] = second compound 0.3 µM, first compound 0.1 µM
# [10] = second compound 0.949 µM, first compound 0.00316 µM
# [11] = second compound 0.949 µM, first compound 0.01 µM
# [12] = second compound 0.949 µM, first compound 0.0316 µM
# [13] = second compound 0.949 µM, first compound 0.1 µM
# [14] = second compound 3 µM, first compound 0.00316 µM
# [15] = second compound 3 µM, first compound 0.01 µM
# [16] = second compound 3 µM, first compound 0.0316 µM
# [17] = second compound 3 µM, first compound 0.1 µM
# [18] = second compound 9.49 µM, first compound 0.00316 µM
# [19] = second compound 9.49 µM, first compound 0.01 µM
# [20] = second compound 9.49 µM, first compound 0.0316 µM
# [21] = second compound 9.49 µM, first compound 0.1 µM
# [22] = second compound 30 µM, first compound 0.00316 µM
# [23] = second compound 30 µM, first compound 0.01 µM
# [24] = second compound 30 µM, first compound 0.0316 µM
# [25] = second compound 30 µM, first compound 0.1 µM
# [26] = second compound 0.3 µM, first compound 0.316 µM
# [27] = second compound 0.3 µM, first compound 1 µM
# [28] = second compound 0.949 µM, first compound 0.316 µM
# [29] = second compound 0.949 µM, first compound 1 µM
# [30] = second compound 3 µM, first compound 0.316 µM
# [31] = second compound 3 µM, first compound 1 µM
# [32] = second compound 9.49 µM, first compound 0.316 µM
# [33] = second compound 9.49 µM, first compound 1 µM
# [34] = second compound 30 µM, first compound 0.316 µM
# [35] = second compound 30 µM, first compound 1 µM
# 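Note: spheroids exposed to compounds for 7 days.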
# 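Throughout, for viability, T/C: 100% = DMSO vehicle wells.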
smiles,measurement,setting,value
CC(C)NCC(C(=O)N1CCN(c2ncnc3c2C(C)CC3O)CC1)c1ccc(Cl)cc1 (stereo not drawn),"viability, T/C",compound 0.3 µM,102% [middle of 10 runs]
same,"viability, T/C",compound 0.949 µM,93% [middle of 10 runs]
same,"viability, T/C",compound 3 µM,89.2% [middle of 10 runs]
same,"viability, T/C",compound 9.49 µM,69.5% [middle of 10 runs]
same,"viability, T/C",compound 30 µM,22.7% [middle of 10 runs]
CCCS(=O)(=O)Nc1ccc(F)c(C(=O)c2c[nH]c3ncc(-c4ccc(Cl)cc4)cc23)c1F,"viability, T/C",compound 0.316 µM,79.4% and 79.2%
same,"viability, T/C",compound 1 µM,60.5% and 59.8%
same,"viability, T/C",compound 3.16 µM,12.7% and 14.3%
same,"viability, T/C",compound 10 µM,0.39% and 0.64%
same,"viability, T/C",compound 31.6 µM,1.44% and 0.22%
same,"viability, T/C",compound 100 µM,1.11% and 5.48%
same,pIC50,curve of compound,5.89
CC(C)CC(NC(=O)CNC(=O)c1cc(Cl)ccc1Cl)B1OC(=O)CC(CC(=O)O)(C(=O)O)O1 (stereo not drawn),"viability, T/C",compound 0.000316 µM,102% and 104%
same,"viability, T/C",compound 0.001 µM,95.7% and 102%
same,"viability, T/C",compound 0.00316 µM,102% and 99%
same,"viability, T/C",compound 0.01 µM,39.4% and 38.7%
same,"viability, T/C",compound 0.0316 µM,3.88% and 2.92%
same,"viability, T/C",compound 0.1 µM,0.22% and 0.2%
same,pIC50,curve of compound,8.09
CC(C)n1nc(-c2ccc3oc(N)nc3c2)c2c(N)ncnc21 + CC(C)NCC(C(=O)N1CCN(c2ncnc3c2C(C)CC3O)CC1)c1ccc(Cl)cc1,pIC50,[1],7.81
same,pIC50,[2],7.85
same,pIC50,[3],8.11
same,pIC50,[4],8.74
same,pIC50,[5],> 9.50
same,"viability, T/C","second compound 0.3 µM, first compound 0.000316 µM",96%
same,"viability, T/C","second compound 0.3 µM, first compound 0.001 µM",96.5%
same,"viability, T/C",[6],89.6%
same,"viability, T/C",[7],59.2%
same,"viability, T/C",[8],31.3%
same,"viability, T/C",[9],6.8%
same,"viability, T/C","second compound 0.949 µM, first compound 0.000316 µM",88.9%
same,"viability, T/C","second compound 0.949 µM, first compound 0.001 µM",95.8%
same,"viability, T/C",[10],80.1%
same,"viability, T/C",[11],58.4%
same,"viability, T/C",[12],29%
same,"viability, T/C",[13],4.5%
same,"viability, T/C","second compound 3 µM, first compound 0.000316 µM",88.5%
same,"viability, T/C","second compound 3 µM, first compound 0.001 µM",77.5%
same,"viability, T/C",[14],68.5%
same,"viability, T/C",[15],47%
same,"viability, T/C",[16],18%
same,"viability, T/C",[17],4.85%
same,"viability, T/C","second compound 9.49 µM, first compound 0.000316 µM",66.6%
same,"viability, T/C","second compound 9.49 µM, first compound 0.001 µM",57.3%
same,"viability, T/C",[18],43%
same,"viability, T/C",[19],17.2%
same,"viability, T/C",[20],5.97%
same,"viability, T/C",[21],0.5%
same,"viability, T/C","second compound 30 µM, first compound 0.000316 µM",16.4%
same,"viability, T/C","second compound 30 µM, first compound 0.001 µM",18.2%
same,"viability, T/C",[22],11.7%
same,"viability, T/C",[23],2.86%
same,"viability, T/C",[24],0.38%
same,"viability, T/C",[25],0.2%
Cc1nc(NC(=O)N2CCCC2C(N)=O)sc1-c1ccnc(C(C)(C)C(F)(F)F)c1 (stereo not drawn) + CC(C)NCC(C(=O)N1CCN(c2ncnc3c2C(C)CC3O)CC1)c1ccc(Cl)cc1,pIC50,[1],< 5.00
same,pIC50,[2],< 5.00
same,pIC50,[3],< 5.00
same,pIC50,[4],5.46
same,pIC50,[5],> 7.50
same,"viability, T/C",[8],102%
same,"viability, T/C",[9],105%
same,"viability, T/C",[26],102%
same,"viability, T/C",[27],105%
same,"viability, T/C","second compound 0.3 µM, first compound 3.16 µM",105%
same,"viability, T/C","second compound 0.3 µM, first compound 10 µM",73.2%
same,"viability, T/C",[12],89%
same,"viability, T/C",[13],103%
same,"viability, T/C",[28],100%
same,"viability, T/C",[29],91.7%
same,"viability, T/C","second compound 0.949 µM, first compound 3.16 µM",82.7%
same,"viability, T/C","second compound 0.949 µM, first compound 10 µM",81.8%
same,"viability, T/C",[16],95.8%
same,"viability, T/C",[17],88.8%
same,"viability, T/C",[30],90.7%
same,"viability, T/C",[31],84.7%
same,"viability, T/C","second compound 3 µM, first compound 3.16 µM",80%
same,"viability, T/C","second compound 3 µM, first compound 10 µM",54.5%
same,"viability, T/C",[20],69.5%
same,"viability, T/C",[21],70.2%
same,"viability, T/C",[32],68.5%
same,"viability, T/C",[33],64.8%
same,"viability, T/C","second compound 9.49 µM, first compound 3.16 µM",51.8%
same,"viability, T/C","second compound 9.49 µM, first compound 10 µM",23.7%
same,"viability, T/C",[24],24.1%
same,"viability, T/C",[25],21.2%
same,"viability, T/C",[34],22.1%
same,"viability, T/C",[35],16.6%
same,"viability, T/C","second compound 30 µM, first compound 3.16 µM",15%
same,"viability, T/C","second compound 30 µM, first compound 10 µM",3.6%
COc1c(OCCCN2CCOCC2)ccc2c3n(c(=NC(=O)c4cnc(N)nc4)nc12)CCN3 + CC(C)NCC(C(=O)N1CCN(c2ncnc3c2C(C)CC3O)CC1)c1ccc(Cl)cc1,pIC50,[1],6.80
same,pIC50,[2],6.81
same,pIC50,[3],7.03
same,pIC50,[4],7.32
same,pIC50,[5],> 8.50
same,"viability, T/C",[6],99.3%
same,"viability, T/C",[7],103%
same,"viability, T/C",[8],85.7%
same,"viability, T/C",[9],71.9%
same,"viability, T/C",[26],19.8%
same,"viability, T/C",[27],10.2%
same,"viability, T/C",[10],93.4%
same,"viability, T/C",[11],107%
same,"viability, T/C",[12],90.3%
same,"viability, T/C",[13],68.8%
same,"viability, T/C",[28],19.5%
same,"viability, T/C",[29],6.65%
same,"viability, T/C",[14],90.8%
same,"viability, T/C",[15],88.3%
same,"viability, T/C",[16],77.7%
same,"viability, T/C",[17],47.3%
same,"viability, T/C",[30],19.3%
same,"viability, T/C",[31],6.49%
same,"viability, T/C",[18],62%
same,"viability, T/C",[19],74.2%
same,"viability, T/C",[20],57.5%
same,"viability, T/C",[21],33.3%
same,"viability, T/C",[32],11.9%
same,"viability, T/C",[33],8.21%
same,"viability, T/C",[22],19.5%
same,"viability, T/C",[23],19.5%
same,"viability, T/C",[24],13.6%
same,"viability, T/C",[25],8.31%
same,"viability, T/C",[34],1.28%
same,"viability, T/C",[35],0.56%
CC(C)CC(NC(=O)C(Cc1ccccc1)NC(=O)c1cnccn1)B(O)O (stereo not drawn),"viability, T/C",compound 31.6 pM,107% and 105%
same,"viability, T/C",compound 0.0001 µM,108% and 96.7%
same,"viability, T/C",compound 0.000316 µM,99.3% and 93%
same,"viability, T/C",compound 0.001 µM,102% and 90.6%
same,"viability, T/C",compound 0.00316 µM,6.95% and 5.71%
same,"viability, T/C",compound 0.01 µM,0.2% and 0.52%
same,pIC50,curve of compound,8.73 and 8.76
CC(C)(C)c1nc(-c2cccc(NS(=O)(=O)c3c(F)cccc3F)c2F)c(-c2ccnc(N)n2)s1,"viability, T/C",compound 0.0316 µM,61.1% and 60.1%
same,"viability, T/C",compound 0.1 µM,23.9% and 24%
same,"viability, T/C",compound 0.316 µM,4.21% and 5.44%
same,"viability, T/C",compound 1 µM,2.39% and 2.26%
same,"viability, T/C",compound 3.16 µM,2.82% and 2.69%
same,"viability, T/C",compound 10 µM,17.2% and 16.2%
same,pIC50,curve of compound,7.35 and 7.36
